What is called IC50 is the concentration that inhibits the measured activity by half. The low end stands for greater potency, the high end for weaker potency.

The test deals with T1, KRAS G12D/RAF1 (Homo sapiens, UniProt P01116, G12D).
T1 construct: KRAS (1-169) proteins were expressed in E. coli at 18° C; His6-MBP (N, cleaved yes); made in house; host or cells: E. coli
T1 sequence (P01116 1-169 isoform P01116-2 G12D): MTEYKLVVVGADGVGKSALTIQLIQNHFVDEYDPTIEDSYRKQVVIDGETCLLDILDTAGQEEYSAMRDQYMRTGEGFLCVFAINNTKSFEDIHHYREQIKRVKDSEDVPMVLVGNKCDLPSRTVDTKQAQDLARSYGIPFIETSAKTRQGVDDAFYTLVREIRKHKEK
As to the kind of experiment: Protein-protein interaction (PPI) HTRF assay KRAS G12D/RAF1. The note with it: KRAS G12D/RAF1, GppNHp-loaded KRAS; 30 minutes pre-incubation. The class given is binding. Put shortly:
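Biotinylated GppNHp-loaded RAS (1-169) on streptavidin-d2 acceptor and His-RAF1 RBD (52-131) on anti-His Tb donor, each prepared at 16 nM in pH 7.5 Tris buffer. Compound preincubated with RAS 30 min, then RAF1 added for 1 h at room temperature. IC50 from HTRF 665/615 ratio, normalized to no compound (0%) and untagged RAF1 (100%).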
On the technique in general: TR-FRET usually uses a lanthanide donor and a delayed reading to cut background.
As to `O=C(c1nn2c(c1Cl)CN(c1nc(OC[C@@]34CCCN3C[C@H](F)C4)nc3c1CO[C@@]1(CCc4c(Cl)cccc41)C3)CCC2)N1CCOCC1` [Compound 45, [3-chloro-5-[(7S)-4′-chloro-2-[[(2R,8S)-2-fluoro-1,2,3,5,6,7-hexahydropyrrolizin-8-yl]methoxy]spiro[5,8-dihydropyrano[4,3-d]pyrimidine-7,1′-indane]-4-yl]-4,6,7,8-tetrahydropyrazolo[1,5-a][1,4]diazepin-2-yl]-morpholino-methanone], the half-inhibitory concentration (IC50) was 10 to 100 µM.
`C[C@@]1(NC#N)CCCN(c2nc(OC[C@@]34CCCN3C[C@H](F)C4)nc3c2COC2(CCc4c(Cl)cccc42)C3)C1` (stereo partly drawn) [Compound 46A, [(3R)-1-[(7*)-4′-chloro-2-[[(2R,8S)-2-fluoro-1,2,3,5,6,7-hexahydropyrrolizin-8-yl]methoxy]spiro[5,8-dihydropyrano[4,3-d]pyrimidine-7,1′-indane]-4-yl]-3-methyl-3-piperidyl]cyanamide; 2,2,2-trifluoroacetic acid]: the half-maximal inhibitory concentration (IC50) was 10 to 100 µM.
Regarding `CN(C)C(=O)c1nn2c(c1Cl)CN(c1nc(OCC3(CN4CCOCC4)CC3)nc3c1CO[C@@]1(CCc4c(Cl)cccc41)C3)CCC2` [Compound 47, 3-chloro-5-[(7S)-4′-chloro-2-[[1-(morpholinomethyl)cyclopropyl]methoxy]spiro[5,8-dihydropyrano[4,3-d]pyrimidine-7,1′-indane]-4-yl]-N,N-dimethyl-4,6,7,8-tetrahydropyrazolo[1,5-a][1,4]diazepine-2-carboxamide], the concentration for half-maximal inhibition (IC50) was more than 100 µM.
On to `O=C(c1nn2c(c1Cl)CN(c1nc(OC[C@@]34CCCN3C[C@H](F)C4)nc3c1CO[C@@]1(CCc4c(Cl)cccc41)C3)CCC2)N1CCNCC1` [Compound 49, [3-chloro-5-[(7S)-4′-chloro-2-[[(2R,8S)-2-fluoro-1,2,3,5,6,7-hexahydropyrrolizin-8-yl]methoxy]spiro[5,8-dihydropyrano[4,3-d]pyrimidine-7,1′-indane]-4-yl]-4,6,7,8-tetrahydropyrazolo[1,5-a][1,4]diazepin-2-yl]-piperazin-1-yl-methanone], for which the 50% inhibitory concentration (IC50) fell in the range of 10 to 100 µM.
The result for `CN1CCN(C(=O)c2nn3c(c2Cl)CN(c2nc(OC[C@@]45CCCN4C[C@H](F)C5)nc4c2CO[C@@]2(CCc5c(Cl)cccc52)C4)CCC3)CC1` [Compound 50, [3-chloro-5-[(7S)-4′-chloro-2-[[(2R,8S)-2-fluoro-1,2,3,5,6,7-hexahydropyrrolizin-8-yl]methoxy]spiro[5,8-dihydropyrano[4,3-d]pyrimidine-7,1′-indane]-4-yl]-4,6,7,8-tetrahydropyrazolo[1,5-a][1,4]diazepin-2-yl]-(4-methylpiperazin-1-yl)methanone] reads 10 to 100 µM; that for `CN(C)C(=O)c1nn2c(c1Cl)CN(c1nc(OC[C@@]34CCCN3C[C@H](F)C4)nc3c1CN(C)[C@@]1(CCc4c(Cl)cccc41)C3)CCC2` [Compound 55, 3-chloro-5-((S)-4-chloro-2′-(((2R,7aS)-2-fluorotetrahydro-1H-pyrrolizin-7a(5H)-yl)methoxy)-6′-methyl-2,3,5′,8′-tetrahydro-6′H-spiro[indene-1,7′-pyrido[4,3-d]pyrimidin]-4′-yl)-N,N-dimethyl-5,6,7,8-tetrahydro-4H-pyrazolo[1,5-a][1,4]diazepine-2-carboxamide], 10 to 100 µM.
The result for `CN1Cc2c(nc(OC[C@@]34CCCN3C[C@H](F)C4)nc2N2CCC[C@]3(C2)NC(=O)NC3=O)C[C@]12CCc1ccccc12` [Compound 60, (5R)-9-[(7S)-2-[[(2R,8S)-2-fluoro-1,2,3,5,6,7-hexahydropyrrolizin-8-yl]methoxy]-6-methyl-spiro[5,8-dihydropyrido[4,3-d]pyrimidine-7,1′-indane]-4-yl]-1,3,9-triazaspiro[4.5]decane-2,4-dione] reads 10 to 100 µM; that for `CN(C)C(=O)c1nn2c(c1Cl)CN(c1nc(OC[C@@]34CCCN3C[C@H](F)C4)nc3c1CN(C)[C@@]1(CCc4c(F)ccc(F)c41)C3)CCC2` [Compound 61, 3-chloro-5-[(7S)-4′,7′-difluoro-2-[[(2R,8S)-2-fluoro-1,2,3,5,6,7-hexahydropyrrolizin-8-yl]methoxy]-6-methyl-spiro[5,8-dihydropyrido[4,3-d]pyrimidine-7,1′-indane]-4-yl]-N,N-dimethyl-4,6,7,8-tetrahydropyrazolo[1,5-a][1,4]diazepine-2-carboxamide], 10 to 100 µM; that for `CN(C)C(=O)c1nn2c(c1Cl)CN(c1nc(OC[C@@]34CCCN3C[C@H](F)C4)nc3c1CN(C)[C@@]1(CCc4cccc(F)c41)C3)CCC2` [Compound 63, 3-chloro-5-[(7S)-7′-fluoro-2-[[(2R,8S)-2-fluoro-1,2,3,5,6,7-hexahydropyrrolizin-8-yl]methoxy]-6-methyl-spiro[5,8-dihydropyrido[4,3-d]pyrimidine-7,1′-indane]-4-yl]-N,N-dimethyl-4,6,7,8-tetrahydropyrazolo[1,5-a][1,4]diazepine-2-carboxamide], 10 to 100 µM.
Turning to `CN(C)C(=O)c1nn2c(c1Cl)CN(c1nc(OC[C@@]34CCCN3C[C@H](F)C4)nc3c1CN(C)[C@@]1(CCc4c(F)cccc41)C3)CCC2` [Compound 65, 3-chloro-5-[(7S)-4′-fluoro-2-[[(2R,8S)-2-fluoro-1,2,3,5,6,7-hexahydropyrrolizin-8-yl]methoxy]-6-methyl-spiro[5,8-dihydropyrido[4,3-d]pyrimidine-7,1′-indane]-4-yl]-N,N-dimethyl-4,6,7,8-tetrahydropyrazolo[1,5-a][1,4]diazepine-2-carboxamide], the IC50 is 10 to 100 µM.
For the compound `CN(C)C(=O)c1nn2c(c1Cl)CN(c1nc(OC[C@@]34CCCN3C[C@H](F)C4)nc3c1CN(C)[C@@]1(CCc4cccc(Cl)c41)C3)CCC2` [Compound 69, 3-chloro-5-[(7S)-7′-chloro-2-[[(2R,8S)-2-fluoro-1,2,3,5,6,7-hexahydropyrrolizin-8-yl]methoxy]-6-methyl-spiro[5,8-dihydropyrido[4,3-d]pyrimidine-7,1′-indane]-4-yl]-N,N-dimethyl-4,6,7,8-tetrahydropyrazolo[1,5-a][1,4]diazepine-2-carboxamide], the IC50 lay in the range of 10 to 100 µM.
Compound `CN(C)C(=O)c1cc2n(n1)CCCN(c1nc(OC[C@@]34CCCN3C[C@H](F)C4)nc3c1CN(C)[C@@]1(CCCc4ccccc41)C3)C2` [Compound 72, 5-[(7S)-2-[[(2R,8S)-2-fluoro-1,2,3,5,6,7-hexahydropyrrolizin-8-yl]methoxy]-6-methyl-spiro[5,8-dihydropyrido[4,3-d]pyrimidine-7,1′-tetralin]-4-yl]-N,N-dimethyl-4,6,7,8-tetrahydropyrazolo[1,5-a][1,4]diazepine-2-carboxamide] came in with an IC50 of 10 to 100 µM.
Compound `CN1Cc2c(nc(OC[C@@]34CCCN3C[C@H](F)C4)nc2N2CCCn3nc(N)c(Cl)c3C2)C[C@]12CCCc1ccccc12` [Compound 79, 3-chloro-5-[(7S)-2-[[(2R,8S)-2-fluoro-1,2,3,5,6,7-hexahydropyrrolizin-8-yl]methoxy]-6-methyl-spiro[5,8-dihydropyrido[4,3-d]pyrimidine-7,1′-tetralin]-4-yl]-4,6,7,8-tetrahydropyrazolo[1,5-a][1,4]diazepin-2-amine] yielded an IC50 of more than 100 µM.
For the compound `CN1Cc2c(nc(OC[C@@]34CCCN3C[C@H](F)C4)nc2N2C[C@H]3CC[C@@H](C2)N3)C[C@]12CCCc1ccccc12` [Compound 84, (7S)-4-[(1R,5S)-3,8-diazabicyclo[3.2.1]octan-3-yl]-2-[[(2R,8S)-2-fluoro-1,2,3,5,6,7-hexahydropyrrolizin-8-yl]methoxy]-6-methyl-spiro[5,8-dihydropyrido[4,3-d]pyrimidine-7,1′-tetralin]], the IC50 was more than 100 µM.
`Cc1nc(-c2nn3c(c2Cl)CN(c2nc(OC[C@@]45CCCN4C[C@H](F)C5)nc4c2CN(C)[C@@]2(CCCc5ccccc52)C4)CCC3)no1` [Compound 87, 3-[3-chloro-5-[(7S)-2-[[(2R,8S)-2-fluoro-1,2,3,5,6,7-hexahydropyrrolizin-8-yl]methoxy]-6-methyl-spiro[5,8-dihydropyrido[4,3-d]pyrimidine-7,1′-tetralin]-4-yl]-4,6,7,8-tetrahydropyrazolo[1,5-a][1,4]diazepin-2-yl]-5-methyl-1,2,4-oxadiazole] showed an IC50 of 10 to 100 µM.
The result for `CN(C)CC1(COc2nc3c(c(N4CCCn5nc(C(=O)N(C)C)c(Cl)c5C4)n2)CN(C)[C@@]2(CCCc4ccccc42)C3)CC1(F)F` (stereo partly drawn) [Compound 97, 3-chloro-5-[(7S)-2-[[1-[(dimethylamino)methyl]-2,2-difluoro-cyclopropyl]methoxy]-6-methyl-spiro[5,8-dihydropyrido[4,3-d]pyrimidine-7,1′-tetralin]-4-yl]-N,N-dimethyl-4,6,7,8-tetrahydropyrazolo[1,5-a][1,4]diazepine-2-carboxamide] reads more than 100 µM.
`CN1Cc2c(nc(OC[C@@]34CCCN3C[C@H](F)C4)nc2N2CCCn3nc(-c4nnnn4C)c(Cl)c3C2)C[C@]12CCCc1ccccc12` [Compound 99, (7S)-4-[3-chloro-2-(1-methyltetrazol-5-yl)-4,6,7,8-tetrahydropyrazolo[1,5-a][1,4]diazepin-5-yl]-2-[[(2R,8S)-2-fluoro-1,2,3,5,6,7-hexahydropyrrolizin-8-yl]methoxy]-6-methyl-spiro[5,8-dihydropyrido[4,3-d]pyrimidine-7,1′-tetralin]] came in with an IC50 of more than 100 µM.

These data come from patent US11912723B2, “KRAS modulators and uses thereof” (Quanta Therapeutics, Inc., priority 2022, dated 2024).
